According to patent US20050245399A1, “Pyrazole derivatives as herbicidal compositions containing them” (ISHIHARA SANGYO KAISHA, LTD., priority 2004, published 2005):

Experiments:
Format in all cases: in vivo
[1] = test system: rice (Oryza sativa L.): ORYSA; assay: Test Example 1 pre-emergence herbicidal activity, ORYSA; details: Rate 63 g a.i./ha, visually observed 20th to 23rd day after application
How it was run: (§1)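 Pre-emergence soil spray: wettable powder or emulsifiable concentrate diluted in water (500 L/ha) applied one day after sowing in upland field soil. Visual growth-control rating (%) on days 20–23, 0 = untreated control, 100 = complete kill.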

[2] = test system: redroot pigweed (Amaranthus retroflexus L.): AMARE; assay: Test Example 1 pre-emergence herbicidal activity, AMARE; details: Rate 63 g a.i./ha, visually observed 20th to 23rd day after application
How it was run: as §1

[3] = test system: redroot pigweed (Amaranthus retroflexus L.), AMARE; assay: Test Example 2 post-emergence (foliage treatment) herbicidal activity, AMARE; details: 63 g a.i./ha
Excerpt: Upland field soil was put into a 1/170,000 ha pot, and seeds of various plants were sown. Then, when the plants reached predetermined leaf stages {1. barnyardgrass (Echinochloa crus-galli L.), ECHCG: 1.1-2.1 leaf stage, 2. crabgrass (Digitaria sanguinalis L.), DIGSA: 1.0-2.0 leaf stage, 3. green foxtail (Setaria viridis L.), SETVI: 1.0-2.2 leaf stage, 4. redroot pigweed (Amaranthus retroflexus L.), AMARE: 0.1-1.5 leaf stage, 5. prickly sida (Sida spinosa L.), SIDSP: 0.1-0.6 leaf stage, 6. velvetleaf (Abutilon theophrasti), ABUTH: 0.1-0.6 leaf stage, 7. common cocklebur (Xanthium strumarium L.), XANST: 0.1 leaf stage, 8. rice (Oryza sativa L.), ORYSA; 1.0-2 leaf stage, 9. wheat (Triticum aestivum L.), TRZAX: 2.3-3.5 leaf stage, 10. corn (Zea mays L.), ZEAMXN 2.1-2.6 leaf stage, 11. soybean (Glycine max Merr.), GLXMA: primary leaf stage}, a wettable powder or emulsifiable concentrate having the compound of the present invention formulated in accordance with a usual formulation method, was weighed so that the active ingredient would be a predetermined amount, and diluted with water in an amount of 500 L/ha. To the diluted solution, 0.1% (v/v) of an agricultural spreader was added. The herbicide adjusted was applied by a small size sprayer for foliage treatment. On the 20th to 23rd day after the application of the herbicide, the growth of the respective plants was visually observed, and the herbicidal effects were evaluated by growth controlling degrees (%) ranging from 0 (equivalent to the untreated control) to 100 (complete kill), whereby the results shown in Table 5, were obtained. Compound Nos. in Table 5 correspond to Compound Nos. in Table 1 and 2 given hereinbefore.

[4] = test system: wheat (Triticum aestivum L.): TRZAX; assay: Test Example 1 pre-emergence herbicidal activity, TRZAX; details: Rate 63 g a.i./ha, visually observed 20th to 23rd day after application
How it was run: as §1

[5] = test system: velvetleaf (Abutilon theophrasti), ABUTH; assay: Test Example 2 post-emergence (foliage treatment) herbicidal activity, ABUTH; details: 63 g a.i./ha
How it was run: (§2)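 Each species was evaluated for growth suppression by eye, 0% matching untreated and 100% meaning death, some 20 to 23 days after a single post-emergence foliar treatment applied in 500 L/ha of water carrying 0.1% (v/v) agricultural spreader.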

[6] = test system: barnyardgrass (Echinochloa crus-galli L.): ECHCG; assay: Test Example 1 pre-emergence herbicidal activity, ECHCG; details: Rate 63 g a.i./ha, visually observed 20th to 23rd day after application
How it was run: as §1

[7] = test system: barnyardgrass (Echinochloa crus-galli L.), ECHCG; assay: Test Example 2 post-emergence (foliage treatment) herbicidal activity, ECHCG; details: 63 g a.i./ha
How it was run: (§3)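 Visual growth-control score (0 = untreated, 100 = complete kill) taken 20th-23rd day after a foliar spray. Seedlings were grown in upland field soil and treated at leaf stage: barnyardgrass 1.1-2.1, crabgrass 1.0-2.0, redroot pigweed 0.1-1.5, rice 1.0-2. Spray volume was 500 L/ha water with 0.1% (v/v) agricultural spreader.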

[8] = test system: corn (Zea mays L.), ZEAMX; assay: Test Example 2 post-emergence (foliage treatment) herbicidal activity, ZEAMX; details: 63 g a.i./ha
How it was run: as §2

[9] = test system: green foxtail (Setaria viridis L.): SETVI; assay: Test Example 1 pre-emergence herbicidal activity, SETVI; details: Rate 63 g a.i./ha, visually observed 20th to 23rd day after application
How it was run: as §1

[10] = test system: prickly sida (Sida spinosa L.): SEDSP; assay: Test Example 1 pre-emergence herbicidal activity, SIDSP; details: Rate 63 g a.i./ha, visually observed 20th to 23rd day after application
How it was run: as §1

[11] = test system: prickly sida (Sida spinosa L.), SIDSP; assay: Test Example 2 post-emergence (foliage treatment) herbicidal activity, SIDSP; details: 63 g a.i./ha
How it was run: as §2

[12] = test system: wheat (Triticum aestivum L.), TRZAX; assay: Test Example 2 post-emergence (foliage treatment) herbicidal activity, TRZAX; details: 63 g a.i./ha
How it was run: as §2

[13] = test system: velvetleaf (Abutilon theophrasti): ABUTH; assay: Test Example 1 pre-emergence herbicidal activity, ABUTH; details: Rate 63 g a.i./ha, visually observed 20th to 23rd day after application
How it was run: as §1

[14] = test system: soybean (Glycine max Merr.), GLXMA; assay: Test Example 2 post-emergence (foliage treatment) herbicidal activity, GLXMA; details: 63 g a.i./ha
How it was run: as §2

[15] = test system: soybean (Glycine max Merr.): GLXMA; assay: Test Example 1 pre-emergence herbicidal activity, GLXMA; details: Rate 63 g a.i./ha, visually observed 20th to 23rd day after application
How it was run: as §1

[16] = test system: rice (Oryza sativa L.), ORYSA; assay: Test Example 2 post-emergence (foliage treatment) herbicidal activity, ORYSA; details: 63 g a.i./ha
How it was run: as §3

[17] = test system: crabgrass (Digitaria sanguinalis L.), DIGSA; assay: Test Example 2 post-emergence (foliage treatment) herbicidal activity, DIGSA; details: 63 g a.i./ha
How it was run: as §3

[18] = test system: corn (Zea mays L.): ZEAMX; assay: Test Example 1 pre-emergence herbicidal activity, ZEAMX; details: Rate 63 g a.i./ha, visually observed 20th to 23rd day after application
How it was run: as §1

[19] = test system: green foxtail (Setaria viridis L.), SETVI; assay: Test Example 2 post-emergence (foliage treatment) herbicidal activity, SETVI; details: 63 g a.i./ha
How it was run: as §2

[20] = test system: crabgrass (Digitaria sanguinalis L.): DIGSA; assay: Test Example 1 pre-emergence herbicidal activity, DIGSA; details: Rate 63 g a.i./ha, visually observed 20th to 23rd day after application
How it was run: as §1

SMILES	Pre-emergence Herbicidal Activity ORYSA (growth controlling degree) [1] [%]	Pre-emergence Herbicidal Activity AMARE (growth controlling degree) [2] [%]	growth controlling degree, AMARE [3] [%]	Pre-emergence Herbicidal Activity TRZAX (growth controlling degree) [4] [%]	growth controlling degree, ABUTH [5] [%]	Pre-emergence Herbicidal Activity ECHCG (growth controlling degree) [6] [%]	growth controlling degree, ECHCO [7] [%]	growth controlling degree, ZEAMX [8] [%]	Pre-emergence Herbicidal Activity SETVI (growth controlling degree) [9] [%]	Pre-emergence Herbicidal Activity SIDSP (growth controlling degree) [10] [%]	growth controlling degree, SIDSP [11] [%]	growth controlling degree, TRZAX [12] [%]	Pre-emergence Herbicidal Activity ABUTH (growth controlling degree) [13] [%]	growth controlling degree, GLXMA [14] [%]	Pre-emergence Herbicidal Activity GLXMA (growth controlling degree) [15] [%]	growth controlling degree, ORYSA [16] [%]	growth controlling degree, DIGSP [17] [%]	Pre-emergence Herbicidal Activity ZEAMX (growth controlling degree) [18] [%]	growth controlling degree, SETVI [19] [%]	Pre-emergence Herbicidal Activity DIGSP (growth controlling degree) [20] [%]
COc1c(Cl)cc(F)c(-c2nn(C)c(OC(F)F)c2Cl)c1NC(=O)C=Cc1ccc(C)cc1 [Compound 1-255]	0	70	100	0	100	0	50	20	10	0	100	10	0	50	0	40	30	0	50	10
COc1c(Cl)cc(F)c(-c2nn(C)c(OC(F)F)c2Cl)c1NC(=O)OC(C)C [Compound 1-75]	30	100	100	30	100	70	100	50	100	60	100	50	100	60	0	80	50	10	100	100
COc1c(Cl)cc(F)c(-c2nn(C)c(OC(F)F)c2Cl)c1NC(=O)CCc1ccccc1C [Compound 1-37]	20	100	100	30	100	60	98	70	80	95	100	50	40	98	0	90	80	0	–	100
COc1c(Cl)cc(F)c(-c2nn(C)c(OC(F)F)c2Cl)c1NCCc1cccc(C)c1 [Compound 1-50]	20	100	100	30	100	70	100	80	100	100	100	70	100	95	10	95	90	10	–	100
COc1c(Cl)cc(F)c(-c2nn(C)c(OC(F)F)c2Cl)c1NC(=O)CCC1CCCCC1 [Compound 1-259]	0	100	100	10	100	10	50	0	30	30	–	0	0	10	0	10	30	0	50	20
